Target: T1, CpGNA1 (Cryptosporidium parvum, UniProt Q5CPU3)
T1 construct: gene SSAT; E. coli BL21 Star; GST cut off with PreScission protease, GPLGS left at N terminus; dimer (sugar site formed by both monomers)
Assay: X-ray crystal structure, […] Å
Type: binding

T1 sequence (Q5CPU3 whole entry): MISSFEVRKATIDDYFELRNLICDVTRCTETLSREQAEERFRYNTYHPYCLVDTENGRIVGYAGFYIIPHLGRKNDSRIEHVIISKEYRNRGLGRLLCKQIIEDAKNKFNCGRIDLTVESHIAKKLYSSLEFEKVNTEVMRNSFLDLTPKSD

Row | SMILES | X-ray crystal structure, 1.95 Å (crystal soaked with 50 mM Glc6P and 50 mM acetyl-CoA, pseudosubstrate in GlcN6P site) | X-ray crystal structure, 1.95 Å (cocrystallized with 10 mM acetyl-CoA, soaked with 50 mM acetyl-CoA and 50 mM Glc6P, acetyl-CoA site)
1 | O=P(O)(O)OC[C@H]1OC(O)[C@H](O)[C@@H](O)[C@@H]1O (some centres unmarked) [Glc6P] | dimeric structure of CpGNA1 in complex with acetyl-CoA and glucose-6-phosphate (Glc6P) | 
2 | CC(=O)SCCNC(=O)CCNC(=O)[C@H](O)C(C)(C)COP(=O)(O)OP(=O)(O)OC[C@H]1O[C@@H](n2cnc3c(N)ncnc32)[C@H](O)[C@@H]1OP(=O)(O)O [acetyl-CoA] |  | dimeric structure of CpGNA1 in complex with acetyl-CoA and glucose-6-phosphate (Glc6P)
